Source: patent publication US20240366535A1, “FORMULATION WITH IMPROVED BIOAVAILABILITY” (MERRY LIFE BIOMEDICAL COMPANY, LTD., priority 2023, published 2024)

Columns and labels:
[1] = Dissolution test in medium simulating gastric juice (0.1N HCl), 30 min; format: physicochemical; conditions: Medium 0.1N HCl
Experimental: (§1) Dissolution Test in 0.1 HCl and pH 6.8 Phosphate Buffer, 30 Min
(§2) The dissolution of TML-6 (API alone) and TML-6 formulations (E01 to E12) were measured in mediums simulating gastric juice for 30 mins, and the results are as shown in Table 5 and 6. The dissolution of TML-6 (API alone) and TML-6 formulations (E13 to E17) were measured in mediums simulating intestinal juice for 30 mins, and the results are as shown in Table 6.

[2] = Dissolution test in medium simulating intestinal juice (pH 6.8 phosphate buffer), 30 min; format: physicochemical; conditions: Medium pH 6.8 Phosphate Buffer
Experimental: as §1, §2

[3] = Pharmacokinetics (PK) studies in rats, single oral dose; format: in vivo; conditions: male, Sprague-Dawley, TML-6 in rat plasma, 25.0 mg/kg single dose, 0.5% MC suspension
Experimental: The objective of this study is to obtain the pharmacokinetic profiles of TML-6 API (unformulated, crystalline), TML-6 formulation E02 (crystalline) and TML-6 formulations E10, E12 and E13 (amorphous) though oral (PO) doses when administrated to 6-8 week old male Sprague-Dawley rats (BioLASCO Taiwan Co. Ltd). A study design of five doses on rats. Animals received a single dose of TML-6 API, TML-6 formulations E02, E10, E12 and E13 at 25 mg/kg via oral gavage.
Dosing Solution Preparation: The TML-6 API, E02, E10, E12 and E13 oral formulations were prepared by suspending these TML6 formulated powder in the aqueous vehicle composed of 0.5% methylcellulose (MC) to the concentration of 2.5 mg/mL TML-6, respectively.
Plasma Sample Preparation and Bioanalysis Serial blood samples were collected from all animals through the tail veins. Approximately 0.2 mL blood samples were collected at each following time points: predose and 0.083, 0.25, 0.5, 1, 2, 4, 6, 8, 10 and 24 hours post-dose. Separation of plasma was prepared by centrifugation (1,000×g for 15 minutes at 4° C.) after blood sampling. Concentrations of TML-6 in rat plasma were determined by liquid chromatography-tandem mass spectrometry (LC-MS/MS), as shown in FIGS. 6 and 7. The lower limit of quantification (LLOQ) was 0.1 ng/mL. […]

Dissolution within 30 min [1]: 0.1% | Dissolution within 30 mins [2]: 0.06% | AUC(0-inf) [3]: 73.6 ng·h/mL | Cmax [3]: 25.3 ng/mL
SMILES: CCN(CC)C(=O)CC(C)(C(=O)/C=C/c1ccc(OC)c(OC)c1)C(=O)/C=C/c1ccc(OC)c(OC)c1 [API alone]
